Assay results reported in patent US9364002B2, “Plant volatiles” (Keygene N.V., priority 2007, dated 2016).

Columns and labels:
B. tabaci [1] = experiment: Statistical correlation (stepwise-linear regression, MANOVA) of headspace volatiles with whitefly repellence ranking; design: species or system Bemisia tabaci; settings: for compounds responsible for repellency or attraction of whitefly: linked to S. pennelli, S. habrochaites or cultivated S. lycopersicum headspace; for Effect on insects: volatiles of tomato headspace correlated to whitefly repellency/attraction score by linear regression; for association: semiochemicals associated to B. tabaci repellence or attraction
Excerpt: In a large experiment (see Example 2), the headspace of 16 wild tomato accessions and 5 cultivated tomato lines were sampled and analyzed (6 repeats). In total 51 compounds were identified to be present in the captured headspace. Furthermore, the level of repellency/attraction of each of the 21 tomato accessions was established in free choice bioassays with B. tabaci (biotype Q), using a ranking scale of 1-7 (1=highest repellency to 7=lowest repellency). Next, the identified volatile compounds were correlated to the repellency/attraction score of each tomato accession through a linear regression analysis.
The headspace of 16 wild tomatoes and 5 cultivated tomatoes (Table 4) was collected. Undisturbed 3-weeks old tomato plants were transferred to 40-L desiccators. The headspace was sampled during 24 h including a 16 h light period, by trapping of the volatile components as described above. […] Each accession was sampled 6 times.
In a statistical analysis the correlation between the identified components of the tomato headspace and the ranking of whitefly repellence measured in the bioassays was made. Using two approaches, a stepwise-linear regression analysis and a MANOVA, 8 volatiles were identified to be correlated to whitefly repellence, whereas 24 other volatile compounds were eliminated as non-relevant for repellency or attraction.

B. tabaci antennae = experiment: Electroantennography (EAG); design: species or system Bemisia tabaci; settings: 10^-3 dilution in paraffin oil; response to paraffin oil subtracted
Procedure: Electroantennography (EAG) was employed to confirm the responsiveness of the atennae to 10^−3 dilution in paraffin oil (Uvasol, Merck) of the chemicals described. Small pieces of filter paper (2 cm2; Schleicher & Schuell, Dassel, Germany) were soaked with 100 μl of the standard dilution or praffin oil only (control). The filter paper was inserted into a 10-ml glass syringe (Poulten & Graf GmbH, Wertheim, Germany). A reproducible stimulus was supplied by puffing 5 ml of air over the antenna (Schutz et al., 1999). The EAG response was recorded for each standard (10^−3) dilution. The response to paraffin oil was considered as a negative control and was subtracted from all the reported EAG measurements. The EAG response expressed as a potential difference across the electrodes (in mV) for the different pure chemicals is given in the right-hand column of Table 5.

[2] = tested on: pests of cut flowers (e.g. B. tabaci); settings: fumigants at 10-20 mg/l, after 2-4 hours of exposure; cited from earlier work
B. tabaci [3] = experiment: Free-choice bioassay: headspace or pure volatiles added to one of four cv Moneymaker tomato plants; format: in vivo, Bemisia tabaci (biotype Q, Almeria population); settings: pure compound added to Moneymaker background
Procedure: A population of Bemisia tabaci was collected at a common greenhouse in Santa Maria del Aguila (Almeria, Spain) in October 2005. By PCR analyses this population was identified to belong to the Q-biotype. The population was reared in a climate chamber (Temperature 28° C., 16 h light) on a mixture of tomato and cucumber plants. Preference of the insects for particular plants (treated or untreated/control-treated) was tested in free choice bioassays.
Free choice experiments with B. tabaci were carried out in a greenhouse compartment (28° C., RH 65%). Light was supplied by high-pressure sodium lamps (Hortilex Schréder SON-T PIA GP 600 W) with a radiation of 250 W/m^2. The preference behaviour of B. tabaci biotype Q (Almeria population) and biotype B (labculture Netherlands) was compared in bioassays with different wild tomatoes (LA1777, LA2560, GI1560) and S. lycopersicum cv Moneymaker). Plants were placed inside a plastic covered wooden tray (170×100×20 cm) filled with soil, at equal distance from each other. Two hundred adult whiteflies were captured, placed at 4° C. for five minutes and then released in the middle of the setup. Ten and 20 minutes after release, the number of whiteflies on each plant was recorded. Since no differential behaviour between B. tabaci B and Q was found, all further bioassays were done with the Almeria (Q) population.
For bioassays with headspace (total headspace or single compounds) four potted tomato plants (S. esculentum cv Moneymaker) were placed in a square setup at a distance of 50 cm. One hundred and fifty adult whiteflies were released and recorded as described above. To test the effect of selected headspace components on repellence, synthetic standards (FLUKA) were applied to either 10 filter-papers discs (Whatman, 25 mm diameter) or 10 rubber septa (Sigma Aldrich, Z167258). Prior to loading, the septa were placed in CH2Cl2 for 24 h and air-dried for 3 days (Heath et al., 1986). The paper discs or septa containing volatiles were attached to one of the four plants with metal wire. The position of the treated tomato was randomised. Five minutes after placing the volatiles on the plant, whiteflies were released. For each component at least 8 replications were carried out. Treatments were administered in a setup in which compounds were always added to the same plant in comparison to 3 plants with empty carriers. Prior to each assay with volatiles, the experiment was done with the 4 plants in an untreated setup, in the same position to allow comparison in the same background.
Host preference with and without manipulated headspace by B. tabaci was explored in free choice assays. In each setup four cultivated tomatoes (cv. Moneymaker) were tested as described earlier. For the bioassays with volatiles rubber septa (Sigma Aldrich Z167258) were extracted with CH2Cl2 for 24 hours and dried to the air for 3 days. The desired blend of volatiles was added to the rubber septa in 100 μl hexane. Bioassays with pure components, or mixtures of pure components were carried out as described above.

[4] = tested on: adult whiteflies B. tabaci; settings: cited from earlier work
[5] = tested on: fourth instar larvae of Colorado potato beetle; settings: cited from earlier work

| Compound | compounds responsible for repellency or attraction of whitefly (B. tabaci [1]) | Effect on insects (B. tabaci [1]) | antennal response (EAG potential difference) (B. tabaci antennae) | association (B. tabaci [1]) | effect on repellence/attractiveness of treated tomato plant (in words) (B. tabaci [3]) | also measured |
| --- | --- | --- | --- | --- | --- | --- |
| CC1=CC2C(CC1)C2(C)C (stereo not drawn) [2-carene] | significantly correlated to the more attractive cultivated S. lycopersicum plants | Attractant |  |  |  |  |
| Cc1ccc(C(C)C)cc1 [para-cymene] | repellent | Repellent | 2.4 mV | repellence |  |  |
| CC12CCC(CC1)C(C)(C)O2 [Cineole] |  |  |  |  |  | mortality [2]: caused mortality |
| C=CCc1ccc2c(c1)OCO2 [safrole] |  |  |  |  |  | mortality [2]: caused mortality |
| CC1=CCC(C(C)C)=CC1 [gamma-terpinene] | repellent | Repellent |  |  | no significant behavioural effect |  |
| CC1=CCC(C(C)C)C=C1 (stereo not drawn) [Alpha-phellandrene] | repellent | Repellent | 2.2 mV | repellence | decreased tomato attractiveness significantly |  |
| CC1=CC=C(C(C)C)CC1 [Alpha-terpinene] | repellent | Repellent | 4.1 mV | repellence | decreased tomato attractiveness significantly |  |
| C=C1C=CC(C(C)C)CC1 (stereo not drawn) [beta-phellandrene] | significantly correlated to the more attractive cultivated S. lycopersicum plants | Attractant |  |  |  |  |
| C=C(C)[C@H]1CC=C(C)CC1 [limonene] | significantly correlated to the more attractive cultivated S. lycopersicum plants | Attractant |  |  |  |  |
| CCCCCCCCCCCC(C)=O [2-tridecanone] |  |  |  |  |  | toxic effect [4]: toxic effect |
| C=CC(=C)CCC=C(C)C [beta-myrcene] | repellent | Repellent |  |  |  |  |
| CCCCCCCCCC(C)=O [2-undecanone] |  |  |  |  |  | toxic effect [5]: toxic effect |
| CC(C)=CCCC(C)c1ccc(C)cc1 (stereo not drawn) [alpha-curcumene] |  | Repellent |  |  |  |  |
| CC(C)=CCC[C@@H](C)[C@@H]1C=CC(C)=CC1 [7-epi zingiberene] | more unattractive |  | 2.3 mV | repellence | clear repellent effect |  |
| CC(C)=CCC[C@H](C)c1ccc(C)cc1 [S-curcumene] | more unattractive |  | 5.0 mV | repellence | clear repellent effect |  |
| CC(C)=CCCC(C)[C@@H]1C=CC(C)=CC1 (stereo partly drawn) [zingiberene] |  | Repellent |  |  |  |  |
